Read-outs that look alike come from different tables or passages of the source. One block for each compound: values may come before it.
How the values were obtained:
sigma-2 binding site = target: T1, sigma-2 binding site (Cavia porcellus, UniProt H0V073); test: biochemical; parameters: species or system guinea pig; settings: for Ki: Table 10, read-out: SIGMA-2 KI vs. 3H-DTG + PENTAZOCINE MEAN; for IC50: Example 9, read-out: sigma-2 IC50
T1 construct: Guinea pig whole membrane preparations (P2 microsomal fraction); from tissue; host or cells: guinea pig membranes (P2 microsomal fraction), as described by Weber et al; brain inferred from the sister test b489
T1 sequence (H0V073 1-176): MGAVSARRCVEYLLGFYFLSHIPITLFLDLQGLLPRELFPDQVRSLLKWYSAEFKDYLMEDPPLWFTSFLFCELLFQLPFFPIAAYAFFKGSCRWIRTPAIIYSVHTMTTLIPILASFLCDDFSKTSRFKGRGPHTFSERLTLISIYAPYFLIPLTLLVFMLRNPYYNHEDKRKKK
Description: For the standard equilibrium assay, the mixtures were incubated for 30 min. at room temperature, then filtered and the radioactivity determined as described above.

sigma-1 binding site = target: T2, sigma-1 binding site (Cavia porcellus, UniProt Q60492); test: biochemical; parameters: species or system guinea pig
T2 construct: Guinea pig whole membrane preparations (P2 microsomal fraction); from tissue; host or cells: guinea pig membranes (P2 microsomal fraction), as described by Weber et al; brain inferred from the sister test b489
Description: [^3 H]DTG was purchased from DuPont/NEN.
The radioactivity on the filters was determined by scintillation spectrometry at an efficiency of about 50% using Cytoscint (ICN) scintillation fluid.

5-HT1A receptor = target: T3, 5-HT1A receptor (Rattus norvegicus, UniProt P19327); test: biochemical; type: binding; parameters: 47: 529-540 (1986); from tissue; host or cells: brain tissue, inferred from the cited method (rat frontal cortex); settings: Table 6; read-out: 5HT-1A (nM) MEAN
T3 sequence (P19327 1-422): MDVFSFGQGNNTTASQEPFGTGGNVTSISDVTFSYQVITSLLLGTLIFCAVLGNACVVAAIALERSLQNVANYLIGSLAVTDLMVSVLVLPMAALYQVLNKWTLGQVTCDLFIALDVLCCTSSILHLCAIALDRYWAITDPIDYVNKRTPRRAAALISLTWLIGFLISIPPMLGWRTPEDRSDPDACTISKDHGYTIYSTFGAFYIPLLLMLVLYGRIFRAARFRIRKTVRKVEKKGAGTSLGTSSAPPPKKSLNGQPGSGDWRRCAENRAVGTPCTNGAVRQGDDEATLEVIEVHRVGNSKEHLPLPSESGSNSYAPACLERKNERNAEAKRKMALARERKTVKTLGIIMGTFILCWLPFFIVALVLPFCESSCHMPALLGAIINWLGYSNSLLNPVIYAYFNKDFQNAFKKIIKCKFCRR
Description: (§1) Further sigma receptor binding assays against [^3 H]DTG and 5HT-1A binding assays were conducted according to the procedure outlined in the previous examples.

sigma receptor = test: Sigma receptor binding, [^3 H]DTG, brain membranes (both sigma-1 and sigma-2 sites); parameters: species or system guinea pig; settings: for IC50: Table 6
Description: Sigma receptor binding assays using guinea pig brain membrane homogenates and the radioligand [^3 H]DTG were conducted as described by Weber et al.. […] Briefly, frozen whole guinea-pig brains (Biotrol, Indianapolis, Ind.) were homogenized in 10 volumes (w/v) of ice-cold 320 mM sucrose using a Brinkman polytron. The homogenate was centrifuged at 1,000× g for 20 minutes at 4° C. The supernatant was centrifuged at 20,000× g for 20 minutes at 4° C. The resulting pellet was resuspended in 10 initial volumes of 50 mM Tris/HCl buffer at pH 7.4 and centrifuged at 20,000× g for 20 minutes at 4° C. The resulting pellet was resuspended in 5 initial volumes ice-cold 50 mM Tris/Hcl […], and the final volume was adjusted to yield a protein concentration of 3 mg/ml. Aliquots of 20-ml were stored at -70° C. until used, with no detectable loss of binding.
The protein concentration in the 1-ml final incubation volume was 800 ug/ml, corresponding to 32 mg of brain tissue (original wet weight) and to a tissue concentration within the linear range for specific binding. […] Incubations were terminated after 90 minutes at room temperature by addition of 4 ml of ice-cold 50 mM Tris/HCl (pH 7.4) and rapid filtration of the membrane suspension through Whatman GF/B glass-fiber filters under vacuum, using a 48-well cell harvester (Brandel). The filters were washed 2 times with 4 ml of 50 mM Tris/HCl (pH 7.4). Each filter was suspended in 10 ml Cytoscint (ICI), and radioactivity was measured by liquid scintillation spectrometry at a counting efficiency of approximately 50%. IC50 values were determined by non-linear regression analyis.
as §1
Radioligand Binding. […] Briefly, membranes (P2 microsomal fraction) were diluted 1:3 with 50 mM Tris HCl (pH 7.4) and 0.4 mL was combined with 50 μL [^3 H]DTG (1-2 nM final concentration) and 50 μL of competing drug or buffer. After 90 min at room temperature, incubation was terminated by rapid filtration under vacuum through Whatman GF/B glass fiber filters using a Brandel 48-well cell harvester. Filters were washed three times with 5 mL of cold Tris HCl buffer and each filter was suspended in 5 mL of Cytoscint (ICN Biomedical). Radioactivity was measured by liquid scintillation spectrometry at a counting efficiency of 50%.

[1] = Table 7, Phenyl-(CH2)x -NH--(CH2)y -Phenyl, read-out: Ki
[2] = Table 10, read-out: SIGMA-1 KI vs. 3H-PENTAZOCINE MEAN
[3] = less than about 0.1, see Table 10
[4] = Table 16, read-out: Sigma-1 IC50
[5] = running text, Examples 5 and 6, read-out: sigma receptor Ki

T2 sequence (Q60492 whole entry): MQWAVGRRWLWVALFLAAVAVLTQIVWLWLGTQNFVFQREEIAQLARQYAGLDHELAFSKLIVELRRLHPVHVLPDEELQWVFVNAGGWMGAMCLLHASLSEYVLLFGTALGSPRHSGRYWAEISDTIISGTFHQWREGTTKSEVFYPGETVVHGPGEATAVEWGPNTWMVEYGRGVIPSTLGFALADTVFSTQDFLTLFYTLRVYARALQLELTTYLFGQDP

SMILES: c1ccc(CCCCCCCNCc2ccccc2)cc1 [Compound 90, N-(7-phenylheptyl)benzylamine]
Ki (sigma-2 binding site): 38.5 nM
IC50 ratio of sigma-1/sigma-2 (sigma-1 selective compounds) (sigma-1 binding site): less than 0.1
sigma-2/sigma-1 selectivity (sigma-1 binding site): 126
Ki (sigma-1 binding site; SIGMA-1 KI vs. 3H-P[…]): 2.3 nM
S1/S2 Ratio (sigma-1 binding site; guinea pig, microsomes): 0.060
IC50 (5-HT1A receptor): 3210 nM
IC50 (sigma receptor; [^3 H]DTG): 3.95 nM
Ki (sigma receptor; [1]): 3.6 nM

SMILES: c1ccc(CCCCNCCc2ccccc2)cc1 [Compound 71, N-(4-phenylbutyl)phenethylamine]
IC50 (sigma-2 binding site): 120 nM
Ki (sigma-2 binding site): 119 nM
Ki (sigma-1 binding site; [2]): 2.6 nM
S1/S2 Ratio (sigma-1 binding site; Table 10, sigma-1/sigma-2): 0.022
IC50 ratio of sigma-1/sigma-2 (sigma-1 selective compounds) (sigma-1 binding site; [3]): less than 0.1
IC50 (5-HT1A receptor): 225 nM
IC50 (sigma receptor; [^3 H]DTG): 5.68 nM
Ki (sigma receptor; [1]): 5.5 nM

SMILES: CN(CCCc1ccc2ccccc2c1)CCCc1ccc2ccccc2c1 [Compound 74]
Ki (sigma-2 binding site): 461 nM
Ki (sigma-1 binding site; [2]): 30 nM
S1/S2 Ratio (sigma-1 binding site; Table 10, sigma-1/sigma-2): 0.065
IC50 ratio of sigma-1/sigma-2 (sigma-1 selective compounds) (sigma-1 binding site; [3]): less than 0.1
IC50 (sigma receptor; [^3 H]DTG): 81.9 nM

SMILES: CN1CCN(CC/C=C\c2ccccc2)CC1 [Compound 104, N-(4-phenyl-3(Z)-butenyl)-N'-methylpiperazine]
Ki (sigma-2 binding site): 1310 nM
IC50 ratio of sigma-1/sigma-2 (sigma-1 selective compounds) (sigma-1 binding site): less than 0.1
Ki (sigma-1 binding site; SIGMA-1 KI vs. 3H-P[…]): 28.7 nM
S1/S2 Ratio (sigma-1 binding site; guinea pig, microsomes): 0.022
IC50 (sigma receptor; [^3 H]DTG): 76.2 nM

SMILES: NCCCCCC1CCCCC1.O=C(O)C(=O)O [Compound 126, 5-Cyclohexylpentylamine Hydrogen Oxalate]
Ki (sigma-2 binding site): 2550 nM
sigma-2/sigma-1 selectivity (sigma-1 binding site; Example 8): 13
Ki (sigma-1 binding site; [2]): 191 nM
S1/S2 Ratio (sigma-1 binding site; Table 10, sigma-1/sigma-2): 0.075
IC50 (sigma-1 binding site; [4]): 190 nM
IC50 ratio of sigma-1/sigma-2 (sigma-1 selective compounds) (sigma-1 binding site; [3]): less than 0.1
IC50 (sigma receptor; [^3 H]DTG): 219 nM
Ki (sigma receptor; [5]): 200 nM

IC50 (sigma-2 binding site): 90 nM
Ki (sigma-2 binding site): 90.1 nM
Ki (sigma-1 binding site; [2]): 11.3 nM
IC50 (sigma-1 binding site; Table 14, read-out: IC50 (nM) at sigma-1): 11.3 nM
IC50 (sigma receptor; [^3 H]DTG): 21.8 nM
Ki (sigma receptor; [1]): 19 nM
Ki (sigma receptor; [5]): 19 nM
SMILES: c1ccc(CCCNCCc2ccccc2)cc1 [Compound 87, N-(3-phenylpropyl)phenethylamine]

SMILES: c1ccc(CCCN2CCCCC2)cc1 [Compound 140, N-(3-phenylpropyl)piperidine]
Ki (sigma-2 binding site): 147 nM
Ki (sigma-1 binding site; [2]): 48.9 nM
IC50 (sigma receptor; [^3 H]DTG): 69 nM

SMILES: c1ccc2cc(CCCNCCCc3ccc4ccccc4c3)ccc2c1 [Compound 70, Di-[3-(2'-Naphthyl)propyl)amine]
Ki (sigma-2 binding site): 10000 nM
IC50 (5-HT1A receptor): 3890 nM
IC50 (sigma receptor; [^3 H]DTG): 116 nM

SMILES: CN1CCN(CCCCc2ccccc2)CC1 [Compound 106, N-(4-phenyl)-N'-methylpiperazine]
Ki (sigma-2 binding site): 899 nM
Ki (sigma-1 binding site; [2]): 19.3 nM
S1/S2 Ratio (sigma-1 binding site; Table 10, sigma-1/sigma-2): 0.022
IC50 ratio of sigma-1/sigma-2 (sigma-1 selective compounds) (sigma-1 binding site; [3]): less than 0.1
IC50 (sigma receptor; [^3 H]DTG): 49.8 nM

SMILES: CN(C)CCCCCC1CCCCC1 [Compound 128, N,N-Dimethyl-5-cyclohexylpentylamine]
Ki (sigma-2 binding site): 195 nM
sigma-2/sigma-1 selectivity (sigma-1 binding site; Example 8): 650
Ki (sigma-1 binding site; [2]): 0.26 nM
S1/S2 Ratio (sigma-1 binding site; Table 10, sigma-1/sigma-2): 0.001
IC50 (sigma-1 binding site; [4]): 0.26 nM
IC50 ratio of sigma-1/sigma-2 (sigma-1 selective compounds) (sigma-1 binding site; [3]): less than 0.1
change in sigma receptor affinity vs. analog (sigma receptor; Examples 5 and 6, [^3 H]DTG): ~10 fold
IC50 (sigma receptor; [^3 H]DTG): 2.87 nM
Ki (sigma receptor; [5]): 2.6 nM
